Among the test systems are MALME-3M melanoma; SK-OV-3 ovarian; SK-MEL-2 melanoma; OVCAR-5 ovarian; ACHN renal; SW-620 colon; HT29 colon; SN12C renal; A549 NSCLC; MDA-MB-435.
What all share (assay): growth of human tumour cells (NCI), 48 h

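Results reflect a 48-hour exposure of cells in 96-well plates to compound at five concentrations. GI50: concentration for 50% inhibition of growth. TGI: total growth inhibition.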 Some results are limits rather than exact numbers.

Twelve compounds from PubChem BioAssay (NCI) can be followed below.

As for `CCCCCCNC(=O)c1cnc(Cl)cn1`, the TGI is 31.1 µM with MALME-3M melanoma; 66 µM in the assay with SK-OV-3 ovarian; 31 µM with SK-MEL-2 melanoma; 32.5 µM in the assay with OVCAR-5 ovarian; 8.49 µM with ACHN renal; 28.4 µM with SW-620 colon. Moreover, the TGI is > 100 µM in the assay on HT29 colon, 26 µM in the assay with SN12C renal, 42.3 µM in the assay on A549 NSCLC and 28.9 µM in the assay on MDA-MB-435.

Turning to `O=NC1C(Cl)C2CC1C1C(Br)C(Br)CC21` (stereo not given), the TGI with MALME-3M melanoma, with SK-OV-3 ovarian, in the assay with SK-MEL-2 melanoma, with OVCAR-5 ovarian, with ACHN renal and with SW-620 colon was > 100 µM each time. Also, the TGI in the assay with HT29 colon, in the assay on SN12C renal, with A549 NSCLC and in the assay with MDA-MB-435 was > 100 µM each time.

For `CC1(CCC2C=CCC2)CCCNC1=S` (stereo not given), the TGI in the assay on MALME-3M melanoma, with SK-OV-3 ovarian, with SK-MEL-2 melanoma, in the assay on OVCAR-5 ovarian, with ACHN renal and in the assay on SW-620 colon was > 10 µM throughout. Also, the TGI with HT29 colon, in the assay on SN12C renal, in the assay on A549 NSCLC and in the assay on MDA-MB-435 was > 10 µM in each case.

As to `O=c1oc2ccccc2c(Nc2ccc3c(c2)S(=O)(=O)c2ccccc2O3)c1[N+](=O)[O-]`, the TGI in the assay on MALME-3M melanoma is 64.6 µM; in the assay with SK-OV-3 ovarian it was 68 µM; with SK-MEL-2 melanoma it was 46.4 µM; with OVCAR-5 ovarian, > 100 µM; with ACHN renal it was 70.2 µM; with SW-620 colon, > 100 µM. For the same compound, the TGI in the assay on HT29 colon is > 100 µM; with SN12C renal, 92.9 µM; in the assay with A549 NSCLC, > 100 µM; in the assay on MDA-MB-435, 97.3 µM.

On to `C[C@@H]1CC[C@H]2C(COCCOCC3=C(C(F)(F)F)O[C@@H]4O[C@@]5(C)CC[C@H]6[C@H](C)CC[C@@H]3[C@@]46OO5)=C(C(F)(F)F)O[C@@H]3O[C@@]4(C)CC[C@@H]1[C@]32OO4`, for which the GI50 in the assay with MALME-3M melanoma was < 0.01 µM; in the assay on SK-OV-3 ovarian, > 31.5 µM; in the assay with SK-MEL-2 melanoma, > 100 µM; in the assay on OVCAR-5 ovarian, > 4.64 µM; with ACHN renal it was 0.0797 µM; with SW-620 colon it was 0.0293 µM. Moreover, the GI50 in the assay on HT29 colon is < 0.0138 µM; in the assay with SN12C renal, < 0.0448 µM; in the assay on A549 NSCLC, < 0.0332 µM; in the assay on MDA-MB-435, 0.0426 µM. Further, the TGI in the assay with MALME-3M melanoma was 9.26 µM; with SK-OV-3 ovarian, > 100 µM; in the assay on SK-MEL-2 melanoma, > 100 µM; with OVCAR-5 ovarian, > 20 µM; in the assay with ACHN renal, > 10.3 µM; in the assay with SW-620 colon, > 100 µM. The TGI in the assay with HT29 colon, in the assay on SN12C renal, in the assay with A549 NSCLC and in the assay on MDA-MB-435 was > 100 µM in each case.

In the case of `C/C=C/[P+](c1ccccc1)(c1ccccc1)c1ccccc1`, the TGI in the assay with MALME-3M melanoma amounted to 13.6 µM; in the assay with SK-OV-3 ovarian, 10.5 µM; with SK-MEL-2 melanoma, 29.1 µM; in the assay on OVCAR-5 ovarian, 33.2 µM; with ACHN renal, 62.5 µM; with SW-620 colon, 24.3 µM. The TGI in the assay on HT29 colon was 12.9 µM; with SN12C renal, 16.5 µM; in the assay with A549 NSCLC it was > 100 µM; in the assay with MDA-MB-435, 5.97 µM.

As to `CC1(C)CS(=O)(=O)CC(C)(C)C(=N/N)/C1=N\N`, the TGI in the assay with MALME-3M melanoma, in the assay on SK-OV-3 ovarian, with SK-MEL-2 melanoma, in the assay with OVCAR-5 ovarian, in the assay on ACHN renal and in the assay on SW-620 colon was > 100 µM in each case. For the same compound, the TGI with HT29 colon, in the assay on SN12C renal, in the assay on A549 NSCLC and with MDA-MB-435 was > 100 µM each time.

As to `COc1cc(OC)c(OC)cc1/C=N/N=C(\N)NO`, the TGI in the assay on MALME-3M melanoma, in the assay on SK-OV-3 ovarian, in the assay on SK-MEL-2 melanoma, in the assay with OVCAR-5 ovarian, in the assay with ACHN renal and in the assay on SW-620 colon was > 100 µM in each case. The TGI with HT29 colon, in the assay on SN12C renal, in the assay with A549 NSCLC and in the assay with MDA-MB-435 was > 100 µM in each case.

With `CC(=O)Nc1ccccc1SCCSSCCSc1ccccc1NC(C)=O`, the TGI is > 100 µM with MALME-3M melanoma; 61.7 µM with SK-OV-3 ovarian; 86.5 µM in the assay on SK-MEL-2 melanoma; 79.2 µM in the assay with OVCAR-5 ovarian; 39.1 µM in the assay on ACHN renal; > 100 µM with SW-620 colon. Besides, the TGI in the assay on HT29 colon is 76.8 µM; in the assay on SN12C renal, > 100 µM; in the assay with A549 NSCLC it was 69.8 µM; in the assay on MDA-MB-435, 41.1 µM.

Take `[N-]=[N+]=Nc1c(-c2ccccc2)c(Cl)nc2ccccc12`: the TGI with MALME-3M melanoma, with SK-OV-3 ovarian, with SK-MEL-2 melanoma, with OVCAR-5 ovarian, with ACHN renal and with SW-620 colon was > 100 µM throughout. Moreover, the TGI was 52.5 µM in the assay on HT29 colon, > 100 µM in the assay with SN12C renal, > 100 µM in the assay with A549 NSCLC and > 100 µM in the assay on MDA-MB-435.

On to `N#Cc1c(N)oc(-c2cccc([N+](=O)[O-])c2)c1C#N`, for which the TGI with MALME-3M melanoma was 61.6 µM; in the assay on SK-OV-3 ovarian, > 100 µM; in the assay with SK-MEL-2 melanoma, > 100 µM; in the assay with OVCAR-5 ovarian it was > 100 µM; in the assay with ACHN renal it was 34.8 µM; with SW-620 colon, 62 µM. In addition, the TGI in the assay on HT29 colon was 37.6 µM; with SN12C renal it was 90.6 µM; in the assay on A549 NSCLC, > 100 µM; in the assay with MDA-MB-435, > 100 µM.

On to `CCC(NC(C)c1ccccc1)C(O)c1ccc(OCc2ccccc2)c(OCc2ccccc2)c1` (stereo not given), for which the TGI in the assay on MALME-3M melanoma stood at 28.9 µM; in the assay with SK-OV-3 ovarian, 32.4 µM; with SK-MEL-2 melanoma it was 29.1 µM; in the assay on OVCAR-5 ovarian it was 26.3 µM; in the assay with ACHN renal it was 32.2 µM; with SW-620 colon, 20.3 µM. The TGI in the assay on HT29 colon came out at 13 µM; in the assay with SN12C renal it was 29.5 µM; in the assay on A549 NSCLC it was 29.8 µM; with MDA-MB-435, 26.7 µM.
